The source of these data is US10851073B2, “Protein tyrosine phosphatase inhibitors and methods of use thereof” (Calico Life Sciences LLC, priority 2019, dated 2020).

Structures are written as SMILES.

One data set deals with pSTAT5 in CD3+ T cells. In words: pSTAT5 flow cytometry assay in mouse whole blood. The class given is in vivo. Here is the method: pSTAT5 Flow Cytometry Assay in Mouse Whole Blood. Whole blood was drawn into EDTA powder coated tubes by cardiac puncture from mice on day 8 of dosing with Compound 118 (2 hours after the 16th dose). 90 μL of whole blood were stimulated with 10 μL of murine IL-2 to achieve a final concentration of 100 ng IL-2/mL (R&D Systems, Minneapolis, Minn., cat #402-ML) for 20 minutes at 37° C., 5% CO2. After stimulation, 1.8 mL of prewarmed BD Phosflow Lyse/Fix Buffer (BD Biosciences, San Jose, Calif.) was added for 20 minutes at 37° C. Cells were washed twice in FACS buffer (Dulbecco's PBS with 0.2% BSA) and incubated for 30 minutes on ice in cold Perm Buffer III (BD Biosciences, San Jose, Calif.). Cells were washed with FACS buffer and resuspended in 50 μL of FACS buffer with antibodies and stained for 3 hours at room temperature with gentle shaking. […] After staining, cells were washed twice with FACS buffer, and the samples were acquired on a BD LSRFortessa™ X20 flow cytometers (BD Biosciences, San Jose, Calif.) and analyzed with FLowJo V10 software (FlowJo, Ashland, Oreg.). The mean fluorescence intensity (MFI) of pSTAT5 as a measure of the amount of phosphorylated STAT5 in the CD3+ T cell population from vehicle or Compound 118 treated animals was reported.
(In general: Flow cytometry measures light scatter and fluorescence of single cells or particles in a stream.)

Data set [1] deals with Granzyme B+ cells within the CD8+ T cell population. Description: Granzyme B staining of CD8 T cells flow cytometry assay in mouse spleen. The class given is in vivo. The procedure: Granzyme B Staining of CD8 T Cells Flow Cytometry Assay in Mouse Spleen. Mice were sacrificed on day 8 of dosing with Compound 118 (2 hours after the 16th dose) and spleens were excised. Spleens were dissociated with a gentleMACS dissociator (Miltenyi Biotec, Bergisch Gladbach, Germany), red blood cells lysed, and single cell suspensions were prepared. Splenocytes were stained with Zombie UV™ Fixable Viability kit (Biolegend, San Diego, Calif.) diluted in Dulbecco's PBS for 10 minutes at room temperature to exclude dead cells followed by staining for surface markers for 45 minutes on ice using the following flow cytometry antibodies diluted in autoMACS Running Buffer (Miltenyi Biotec, Bergisch Gladbach, Germany): Brilliant Violet 510-labeled anti-CD45, Brilliant Ultraviolet 395-labeled anti-CD3, Brilliant Violet 786-labeled anti-CD4, APC/Cy7-labeled anti-CD8. […] After staining, cells were washed twice with autoMACS Running Buffer, and the samples were acquired on a BD LSRFortessa™ X20 flow cytometers (BD Biosciences, San Jose, Calif.) and analyzed with FLowJo V10 software (FlowJo, Ashland, Oreg.). […]

Data set [2] has as its system MC-38 murine colon adenocarcinoma. In words: In vivo efficacy in MC38 mouse tumor model. The procedure: Example 232. In Vivo Efficacy of PTPN2 Inhibitors in MC38 Mouse Tumor Model and Impact on Pharmacodynamic Markers
All experiments were conducted in compliance with AbbVie's Institutional Animal Care and Use Committee and the National Institutes of Health Guide for Care and Use of Laboratory Animals guidelines in a facility accredited by the Association for the Assessment and Accreditation of Laboratory Animal Care. C57Bl/6 female mice were obtained from Charles River (Wilmington, Mass.). The mice were group-housed 10 per cage. Food and water were available ad libitum. Animals were acclimated to the animal facilities for a period of at least one week prior to commencement of experiments. Animals were tested in the light phase of a 12-hour light: 12-hour dark schedule (lights on 0600 hours).
Tumor Cell Inoculation and Treatments.
Cells were grown to passage 3 in vitro. A total of 1×10^5 viable MC-38 cells were inoculated subcutaneously into the right flank of female C57Bl/6 mice (7-12 weeks old) on Day 0. The injection volume was 0.1 mL and was composed of a 1:1 mixture of S-MEM and Matrigel® (Corning, N.Y., USA). […] The mean tumor volume (TV) at size match was approximately 196±64 mm^3. Following size match, treatments were initiated on the same day. Dosing of mice was conducted orally, twice a day (BID) at 7 a.m. and 5 p.m. for 21 days. Mice were dosed (10 mg/kg/dose) with either Compound 118 or vehicle controls (n=15 mice/group). Compound 118 was formulated in 10% ethanol, 30% PEG-400 and 60% Phosal-50PG and was dosed at 10 mL/kg. Tumor volume was calculated three times weekly. Measurements of the length (L) and width (W) of the tumor were taken via electronic caliper and the volume was calculated according to the following equation: V=L×W^2/2 using Study Director Version 3.1.399.22 (Studylog Systems, Inc, CA, USA). Mice were euthanized when tumor volume was […] or skin ulcerations occurred. Tumor growth inhibition (TGI) was calculated as TGI=1−(Mean TVTimepoint(Treatment)/Mean TVTimepoint (Vehicle)) for each timepoint that tumor volumes were measured. Reported TGIMax is the largest TGI value for any timepoint that tumors volumes were collected for that treatment group.

Where [3] appears, read: 10 mg/kg/dose oral BID, day 8 of dosing (2 hours post 16th dose), value ± SEM.
[4] abbreviates: 10 mg/kg/dose oral BID for 21 days.

Regarding `CC(C)CCN[C@@H]1CCc2cc(O)c(N3CC(=O)NS3(=O)=O)c(F)c2C1` (single isomer, unassigned) [Compound 118], the “pSTAT5 level [MFI] in CD3+ T cells from IL2 stimulated whole blood” value in the data set on pSTAT5 in CD3+ T cells (setting [3]) was 1261±97 MFI. Besides, the “pSTAT5 levels in whole blood T cells, fold higher than vehicle” value with pSTAT5 in CD3+ T cells (day 8 of dosing, ex vivo IL2 stimulation) amounted to 1.6 fold. The “% GzB+ cells within splenic CD8+ T cells” value in data set [1] (setting [3]) came out at 4.3±0.9%. In addition, in data set [1] (day 8 of dosing), the “frequency of granzyme B producing cells within CD8+ T population in spleen, fold higher than vehicle” value is listed as 3.9 fold. Also, in data set [2] (setting [4]), the “mice that achieved complete cures” value amounted to 70% and the tolerability entry was “well tolerated, without obvious adverse health events”. Moreover, the “Tumor Growth Inhibition (Max) compared to vehicle [%]” value in data set [2] (10 mg/kg/dose oral BID for 21 days, C57Bl/6 mice) was 94%. The tumor response observed result in data set [2] (within 7-10 days of treatment) is “apparent tumor stasis and shrinkage”.
